Tested on: Caenorhabditis elegans
Assay: C. elegans L1 nematicidal dose response in 96-well plates, 5 day visual score (Example 2; same procedure for Example 7, Table 3)
Type: in vivo
Parameters: key to 5 Day Visual Score V1 / 5 Day Visual Score V2 / 5 Day Visual Score V3 / 5 Day Visual Score V4 / 5 Day Visual Score V6 / 5 Day Visual Score V5 / Initial HTS Run Visual Score / Follow-up HTS Run Visual Score: Dead: only stiff L1s (no movement); Dead (L4): worms are dead, but at a later larval stage; majority of worms are L1 (based on size) worms move when plate is tapped; majority of worms are L2 (based on size); majority of worms are L3 (based on size); majority of worms are L4 (based on size); AD: majority of worms are adult; #AD: 5 adult worms or less; B!: sterile (0-25 progeny); B: low broodsize (25-100 progeny); ˜B: moderate broodsize (100-250 progeny); <: reduced broodsize (250-500 progeny); OK: no effect (˜1000+ progeny)
Procedure, shortened: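 L1 larvae, 20 per well in NGM with 1% E. coli HB101 and antibiotic/antimycotic, exposed to six 3-fold dilutions from 70 μM down to 0.3 μM (1.4% DMSO at top). Held at 20° C; viability scored visually under 100× dissecting microscope on day 5.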

[1] = dose response, dilution V1, day 5
[2] = dose response, dilution V4, day 5
[3] = dose response, dilution V5, day 5
[4] = dose response, dilution V6, day 5
[5] = dose response, dilution V1, 5 day
[6] = dose response, dilution V3, 5 day
[7] = dose response, dilution V6, 5 day
[8] = dose response, dilution V3, day 5
[9] = 0.3 μM, C. elegans L1, scored day 5

| SMILES | Follow-up HTS Run % Run | Follow-up HTS Run mOD | Initial HTS Run % Run | Initial HTS Run mOD | 5 Day Visual Score V1 [1] | 5 Day Visual Score V4 [2] | 5 Day Visual Score V5 [3] | 5 Day Visual Score V6 [4] | 5 Day Visual Score V1 [5] | 5 Day Visual Score V2 (dose response, dilution V2, 5 day) | 5 Day Visual Score V3 [6] | 5 Day Visual Score V6 [7] | Follow-up HTS Run Visual Score | Initial HTS Run Visual Score | 5 Day Visual Score V3 [8] | 5 Day Visual Score V4 (dose response, dilution V4, 5 day) | 5 Day Visual Score V5 (dose response, dilution V5, 5 day) | 5 Day Visual Score V6 [9] | 5 Day Visual Score V5 (0.9 μM, C. elegans L1, scored day 5) | 5 Day Visual Score V4 (2.6 μM, C. elegans L1, scored day 5) |
| --- | --- | --- | --- | --- | --- | --- | --- | --- | --- | --- | --- | --- | --- | --- | --- | --- | --- | --- | --- | --- |
| FC(F)(F)c1cccc(N2CCN(c3nc(NCc4ccccc4)ns3)CC2)c1 [compound 266] | 124% | 200 mOD | 110% | 121 mOD | Dead | OK (no effect (˜1000+ progeny)) | OK (no effect (˜1000+ progeny)) | OK (no effect (˜1000+ progeny)) | – | – | – | – | – | – | – | – | – | – | – | – |
| CN(CCc1ccccc1)c1nc(NCc2ccc(C(F)(F)F)cc2)ns1 [compound 314] | 103% | 166 mOD | 106% | 117 mOD | – | – | – | – | L1 | L4#AD/B! and L1 | L1 | OK (no effect (˜1000+ progeny)) | – | – | – | – | – | – | – | – |
| CN(CCO)c1nc(NCc2ccc(C(F)(F)F)cc2)ns1 [compound 256] | 112% | 180 mOD | 106% | 117 mOD | Dead | OK (no effect (˜1000+ progeny)) | OK (no effect (˜1000+ progeny)) | OK (no effect (˜1000+ progeny)) | – | – | – | – | L2 - Dead L3 | L2 - (Dead L3) | OK (no effect (˜1000+ progeny)) | – | – | – | – | – |
| Cc1cccc(C)c1N1CCN(c2nsc(N3CC(C)CC(C)C3)n2)CC1 (stereo not drawn) [compound 219] | 74% | 119 mOD | 90% | 99 mOD | Dead | OK (no effect (˜1000+ progeny)) | OK (no effect (˜1000+ progeny)) | OK (no effect (˜1000+ progeny)) | – | – | – | – | Dead/1AD/B! | 4AD/B | – | – | – | – | – | – |
| Cc1cccc(C)c1N1CCN(c2nc(NCCc3ccc(Oc4ccccc4)cc3)ns2)CC1 [compound 269] | 132% | 212 mOD | 166% | 183 mOD | Dead | OK (no effect (˜1000+ progeny)) | OK (no effect (˜1000+ progeny)) | OK (no effect (˜1000+ progeny)) | – | – | – | – | L4/AD/B | L4/1AD/B | OK (no effect (˜1000+ progeny)) | – | – | – | – | – |
| C=CCN(CC=C)c1nc(NCc2ccc(C(F)(F)F)cc2)ns1 [compound 312] | 115% | 185 mOD | 104% | 114 mOD | – | – | – | – | L1 | – | ˜B (moderate broodsize (100-250 progeny)) | OK (no effect (˜1000+ progeny)) | – | – | – | OK (no effect (˜1000+ progeny)) | OK (no effect (˜1000+ progeny)) | – | – | – |
| CCCCOc1ccc(C(=O)N2CC(OCCCc3ccccc3)CC2C(=O)NCc2ccccc2OC)cc1 (stereo not drawn) [AKC 126] | – | – | – | – | – | – | – | – | – | – | – | – | – | – | – | – | – | #AD/˜B | ˜B (moderate broodsize (100-250 progeny)) | #AD/˜B |
| O=C(NCCc1ccc(F)cc1)C1C(c2ccccc2Cl)=NOC1c1ccc(-c2ccccc2)cc1 (stereo not drawn) [AKC 119] | – | – | – | – | – | – | – | – | – | – | – | – | – | – | – | – | – | < (reduced broodsize (250-500 progeny)) | – | – |
| CCOC(=O)CCN(Cc1ccccc1)c1nc(N2CCN(c3ccc(F)cc3)CC2)ns1 [compound 238] | 122% | 197 mOD | 135% | 148 mOD | L1 | < (reduced broodsize (250-500 progeny)) | OK (no effect (˜1000+ progeny)) | OK (no effect (˜1000+ progeny)) | – | – | – | – | L4/AD/B | L4/Ad/B! | < (reduced broodsize (250-500 progeny)) | – | – | – | – | – |

Reference: patent publication US20020002171A1, “Materials and methods for killing nematodes and nematode eggs” (priority 2000, published 2002)
